± gives the expanded uncertainty stated by the source.
Conditions: Liquid, Vibrating tube method

CCOC(=O)CCC(=O)OCC [diethyl butanedioate]
Conditions | mass density [kg/m3]
283.56 K, 100010 kPa | 1102.48 ± 1.3
283.57 K, 100 kPa | 1049.61 ± 1.1
283.57 K, 1000 kPa | 1050.21 ± 1.1
283.57 K, 3000 kPa | 1051.56 ± 1.1
283.57 K, 5000 kPa | 1052.88 ± 1.1
283.57 K, 10000 kPa | 1056.11 ± 1.1
283.57 K, 15000 kPa | 1059.25 ± 1.1
283.57 K, 30000 kPa | 1068.16 ± 1.1
283.57 K, 40000 kPa | 1073.71 ± 1.1
283.57 K, 50000 kPa | 1079 ± 1.2
283.57 K, 60000 kPa | 1084.1 ± 1.2
283.57 K, 70000 kPa | 1089.01 ± 1.2
283.57 K, 80000 kPa | 1093.63 ± 1.2
283.57 K, 90010 kPa | 1098.12 ± 1.3
283.58 K, 20000 kPa | 1062.29 ± 1.1
283.58 K, 25000 kPa | 1065.25 ± 1.1
293.49 K, 100 kPa | 1039.78 ± 1.1
293.49 K, 20000 kPa | 1053.11 ± 1.1
293.49 K, 25000 kPa | 1056.23 ± 1.1
293.49 K, 40000 kPa | 1065.07 ± 1.1
293.49 K, 60000 kPa | 1075.9 ± 1.2
293.5 K, 1000 kPa | 1040.41 ± 1.1
293.5 K, 3000 kPa | 1041.81 ± 1.1
293.5 K, 5000 kPa | 1043.2 ± 1.1
293.5 K, 10000 kPa | 1046.6 ± 1.1
293.5 K, 15000 kPa | 1049.91 ± 1.1
293.5 K, 30000 kPa | 1059.25 ± 1.1
293.5 K, 50000 kPa | 1070.61 ± 1.1
293.5 K, 70000 kPa | 1080.89 ± 1.2
293.5 K, 80000 kPa | 1085.77 ± 1.2
293.51 K, 90000 kPa | 1090.39 ± 1.2
293.51 K, 100000 kPa | 1094.9 ± 1.3
303.42 K, 100 kPa | 1028.98 ± 1.1
303.42 K, 1000 kPa | 1029.62 ± 1.1
303.42 K, 20000 kPa | 1042.98 ± 1.1
303.42 K, 25000 kPa | 1046.26 ± 1.1
303.42 K, 60000 kPa | 1066.78 ± 1.1
303.42 K, 70000 kPa | 1072.05 ± 1.2
303.42 K, 80000 kPa | 1077.09 ± 1.2
303.43 K, 3000 kPa | 1031.12 ± 1.1
303.43 K, 5000 kPa | 1032.59 ± 1.1
303.43 K, 15000 kPa | 1039.61 ± 1.1
303.43 K, 30000 kPa | 1049.4 ± 1.1
303.43 K, 40000 kPa | 1055.5 ± 1.1
303.43 K, 50000 kPa | 1061.26 ± 1.1
303.43 K, 90000 kPa | 1081.92 ± 1.2
303.43 K, 100000 kPa | 1086.58 ± 1.3
303.44 K, 10000 kPa | 1036.15 ± 1.1
313.31 K, 15000 kPa | 1030.05 ± 1.1
313.31 K, 50000 kPa | 1052.81 ± 1.1
313.32 K, 5000 kPa | 1022.61 ± 1.1
313.32 K, 10000 kPa | 1026.44 ± 1.1
313.32 K, 30000 kPa | 1040.39 ± 1.1
313.32 K, 40000 kPa | 1046.78 ± 1.1
313.33 K, 100 kPa | 1018.75 ± 1
313.33 K, 1000 kPa | 1019.44 ± 1
313.33 K, 3000 kPa | 1021.07 ± 1.1
313.33 K, 20000 kPa | 1033.63 ± 1.1
313.33 K, 25000 kPa | 1037.06 ± 1.1
313.33 K, 60000 kPa | 1058.52 ± 1.1
313.33 K, 70000 kPa | 1064.01 ± 1.2
313.33 K, 80000 kPa | 1069.21 ± 1.2
313.33 K, 90000 kPa | 1074.2 ± 1.2
313.33 K, 100000 kPa | 1078.99 ± 1.2
323.18 K, 100 kPa | 1008.44 ± 1
323.18 K, 1000 kPa | 1009.19 ± 1
323.18 K, 3000 kPa | 1010.86 ± 1
323.18 K, 10000 kPa | 1016.52 ± 1
323.18 K, 15000 kPa | 1020.37 ± 1.1
323.18 K, 20000 kPa | 1024.08 ± 1.1
323.18 K, 25000 kPa | 1027.7 ± 1.1
323.19 K, 5000 kPa | 1012.5 ± 1
323.19 K, 30000 kPa | 1031.17 ± 1.1
323.19 K, 40000 kPa | 1037.8 ± 1.1
323.19 K, 50000 kPa | 1044.06 ± 1.1
323.19 K, 60000 kPa | 1050.01 ± 1.1
323.19 K, 70000 kPa | 1055.67 ± 1.1
323.19 K, 80000 kPa | 1061.06 ± 1.2
323.19 K, 90000 kPa | 1066.22 ± 1.2
323.19 K, 100000 kPa | 1071.19 ± 1.2
333.1 K, 100 kPa | 998.31 ± 1
333.1 K, 1000 kPa | 999.11 ± 1
333.1 K, 3000 kPa | 1000.91 ± 1
333.1 K, 5000 kPa | 1002.64 ± 1
333.11 K, 10000 kPa | 1006.85 ± 1
333.11 K, 15000 kPa | 1010.94 ± 1
333.11 K, 20000 kPa | 1014.85 ± 1
333.11 K, 25000 kPa | 1018.62 ± 1.1
333.11 K, 30000 kPa | 1022.27 ± 1.1
333.11 K, 40000 kPa | 1029.2 ± 1.1
333.11 K, 50000 kPa | 1035.72 ± 1.1
333.11 K, 60000 kPa | 1041.91 ± 1.1
333.11 K, 70000 kPa | 1047.69 ± 1.1
333.11 K, 80000 kPa | 1053.26 ± 1.1
333.11 K, 90000 kPa | 1058.57 ± 1.2
333.11 K, 100000 kPa | 1063.7 ± 1.2
342.97 K, 100 kPa | 987.87 ± 1
342.97 K, 15000 kPa | 1001.22 ± 1
342.97 K, 20000 kPa | 1005.3 ± 1
342.97 K, 30000 kPa | 1013.07 ± 1
342.97 K, 40000 kPa | 1020.32 ± 1.1
342.97 K, 50000 kPa | 1027.1 ± 1.1
342.97 K, 70000 kPa | 1039.64 ± 1.1
342.97 K, 90000 kPa | 1050.91 ± 1.2
342.97 K, 100000 kPa | 1056.19 ± 1.2
342.98 K, 1000 kPa | 988.73 ± 1
342.98 K, 3000 kPa | 990.63 ± 1
342.98 K, 5000 kPa | 992.45 ± 1
342.98 K, 10000 kPa | 996.91 ± 1
342.98 K, 25000 kPa | 1009.24 ± 1
342.98 K, 60000 kPa | 1033.53 ± 1.1
342.98 K, 80000 kPa | 1045.43 ± 1.1
352.82 K, 100 kPa | 977.64 ± 1
352.82 K, 1000 kPa | 978.58 ± 1
352.82 K, 3000 kPa | 980.59 ± 1
352.82 K, 5000 kPa | 982.53 ± 1
352.82 K, 10000 kPa | 987.26 ± 1
352.82 K, 15000 kPa | 991.79 ± 1
352.83 K, 20000 kPa | 996.08 ± 1
352.83 K, 25000 kPa | 1000.24 ± 1
352.83 K, 30000 kPa | 1004.25 ± 1
352.83 K, 40000 kPa | 1011.8 ± 1
352.83 K, 50000 kPa | 1018.87 ± 1.1
352.83 K, 60000 kPa | 1025.54 ± 1.1
352.83 K, 70000 kPa | 1031.82 ± 1.1
352.83 K, 80000 kPa | 1037.81 ± 1.1
352.83 K, 90000 kPa | 1043.47 ± 1.1
352.83 K, 100010 kPa | 1048.95 ± 1.2
362.66 K, 100 kPa | 967.3 ± 0.99
362.66 K, 1000 kPa | 968.28 ± 0.99
362.66 K, 3000 kPa | 970.41 ± 0.99
362.66 K, 60000 kPa | 1017.41 ± 1.1
362.67 K, 5000 kPa | 972.48 ± 1
362.67 K, 10000 kPa | 977.45 ± 1
362.67 K, 15000 kPa | 982.21 ± 1
362.67 K, 20000 kPa | 986.74 ± 1
362.67 K, 25000 kPa | 991.07 ± 1
362.67 K, 30000 kPa | 995.26 ± 1
362.67 K, 40000 kPa | 1003.16 ± 1
362.67 K, 50000 kPa | 1010.5 ± 1.1
362.67 K, 70000 kPa | 1023.98 ± 1.1
362.67 K, 80000 kPa | 1030.14 ± 1.1
362.67 K, 90000 kPa | 1036.01 ± 1.1
362.67 K, 100000 kPa | 1041.65 ± 1.2

— the NIST ThermoML archive (doi:10.1021/acs.jced.5b00385)
